Where “and” joins values, the source holds several entries; their conditions need not be identical. Equal values may be shown once.
Legend:
Histamine H2 receptor = Histamine H2 receptor (Homo sapiens, UniProt P25021); type: functional, cell-based
[1] = target: T1, Equilibrative nucleoside transporter 1 (Homo sapiens, UniProt Q99808)
T1 sequence (Q99808 whole entry): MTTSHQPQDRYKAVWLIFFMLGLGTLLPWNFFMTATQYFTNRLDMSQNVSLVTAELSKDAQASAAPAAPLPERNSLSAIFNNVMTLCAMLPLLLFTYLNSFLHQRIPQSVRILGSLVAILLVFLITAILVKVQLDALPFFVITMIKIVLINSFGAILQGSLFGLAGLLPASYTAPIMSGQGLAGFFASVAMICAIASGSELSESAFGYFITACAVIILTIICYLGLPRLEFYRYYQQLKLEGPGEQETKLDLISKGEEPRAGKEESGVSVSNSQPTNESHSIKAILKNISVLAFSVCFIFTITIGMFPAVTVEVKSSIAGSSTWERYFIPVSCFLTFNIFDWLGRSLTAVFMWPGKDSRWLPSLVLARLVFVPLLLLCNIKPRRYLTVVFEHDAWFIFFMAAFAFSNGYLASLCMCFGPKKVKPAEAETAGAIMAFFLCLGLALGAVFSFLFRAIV

Motilin receptor = Motilin receptor (Homo sapiens, UniProt O43193)
Motilin receptor, sequence (O43193 whole entry): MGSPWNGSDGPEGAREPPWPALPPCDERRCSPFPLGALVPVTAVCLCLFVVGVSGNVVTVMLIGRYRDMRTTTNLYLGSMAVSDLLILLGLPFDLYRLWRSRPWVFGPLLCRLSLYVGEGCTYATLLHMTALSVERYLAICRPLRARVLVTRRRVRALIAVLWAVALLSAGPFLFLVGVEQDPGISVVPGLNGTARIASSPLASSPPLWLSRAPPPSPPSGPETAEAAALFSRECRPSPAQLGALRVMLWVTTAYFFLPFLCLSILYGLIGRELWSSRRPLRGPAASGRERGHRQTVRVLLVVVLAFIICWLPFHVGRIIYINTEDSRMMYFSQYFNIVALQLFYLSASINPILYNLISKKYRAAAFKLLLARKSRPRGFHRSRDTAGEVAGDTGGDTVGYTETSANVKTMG

Progesterone receptor [2] = target: T2, Progesterone receptor (Homo sapiens, UniProt P06401); type: functional
T2 sequence (P06401 whole entry): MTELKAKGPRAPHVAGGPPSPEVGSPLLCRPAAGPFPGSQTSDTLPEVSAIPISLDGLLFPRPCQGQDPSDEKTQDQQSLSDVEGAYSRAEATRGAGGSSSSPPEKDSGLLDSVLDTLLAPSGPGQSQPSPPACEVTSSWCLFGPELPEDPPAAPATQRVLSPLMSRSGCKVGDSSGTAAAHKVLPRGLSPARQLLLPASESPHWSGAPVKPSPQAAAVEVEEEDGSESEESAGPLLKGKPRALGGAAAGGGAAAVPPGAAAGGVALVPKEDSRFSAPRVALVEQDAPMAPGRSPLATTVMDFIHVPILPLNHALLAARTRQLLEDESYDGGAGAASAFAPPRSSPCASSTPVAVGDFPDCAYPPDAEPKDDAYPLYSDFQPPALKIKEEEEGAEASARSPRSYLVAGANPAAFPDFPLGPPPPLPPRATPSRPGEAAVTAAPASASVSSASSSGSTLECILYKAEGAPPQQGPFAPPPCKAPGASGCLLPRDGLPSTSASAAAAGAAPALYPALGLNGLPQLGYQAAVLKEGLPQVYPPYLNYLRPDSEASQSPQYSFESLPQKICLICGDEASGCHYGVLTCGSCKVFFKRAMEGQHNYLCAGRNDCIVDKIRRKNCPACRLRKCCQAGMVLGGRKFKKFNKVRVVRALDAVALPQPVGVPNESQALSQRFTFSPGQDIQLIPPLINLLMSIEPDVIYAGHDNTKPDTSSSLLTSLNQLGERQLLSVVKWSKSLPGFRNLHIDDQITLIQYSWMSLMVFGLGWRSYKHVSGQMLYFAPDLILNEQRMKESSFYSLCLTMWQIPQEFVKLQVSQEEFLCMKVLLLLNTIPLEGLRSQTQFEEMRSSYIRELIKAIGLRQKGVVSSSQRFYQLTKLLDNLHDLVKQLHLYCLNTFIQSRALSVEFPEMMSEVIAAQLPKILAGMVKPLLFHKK

[3] = target: Voltage-dependent L-type calcium channel subunit alpha-1C (Rattus norvegicus, UniProt P22002); type: functional
Voltage-dependent L-type calcium channel subunit alpha-1C, sequence (P22002 whole entry): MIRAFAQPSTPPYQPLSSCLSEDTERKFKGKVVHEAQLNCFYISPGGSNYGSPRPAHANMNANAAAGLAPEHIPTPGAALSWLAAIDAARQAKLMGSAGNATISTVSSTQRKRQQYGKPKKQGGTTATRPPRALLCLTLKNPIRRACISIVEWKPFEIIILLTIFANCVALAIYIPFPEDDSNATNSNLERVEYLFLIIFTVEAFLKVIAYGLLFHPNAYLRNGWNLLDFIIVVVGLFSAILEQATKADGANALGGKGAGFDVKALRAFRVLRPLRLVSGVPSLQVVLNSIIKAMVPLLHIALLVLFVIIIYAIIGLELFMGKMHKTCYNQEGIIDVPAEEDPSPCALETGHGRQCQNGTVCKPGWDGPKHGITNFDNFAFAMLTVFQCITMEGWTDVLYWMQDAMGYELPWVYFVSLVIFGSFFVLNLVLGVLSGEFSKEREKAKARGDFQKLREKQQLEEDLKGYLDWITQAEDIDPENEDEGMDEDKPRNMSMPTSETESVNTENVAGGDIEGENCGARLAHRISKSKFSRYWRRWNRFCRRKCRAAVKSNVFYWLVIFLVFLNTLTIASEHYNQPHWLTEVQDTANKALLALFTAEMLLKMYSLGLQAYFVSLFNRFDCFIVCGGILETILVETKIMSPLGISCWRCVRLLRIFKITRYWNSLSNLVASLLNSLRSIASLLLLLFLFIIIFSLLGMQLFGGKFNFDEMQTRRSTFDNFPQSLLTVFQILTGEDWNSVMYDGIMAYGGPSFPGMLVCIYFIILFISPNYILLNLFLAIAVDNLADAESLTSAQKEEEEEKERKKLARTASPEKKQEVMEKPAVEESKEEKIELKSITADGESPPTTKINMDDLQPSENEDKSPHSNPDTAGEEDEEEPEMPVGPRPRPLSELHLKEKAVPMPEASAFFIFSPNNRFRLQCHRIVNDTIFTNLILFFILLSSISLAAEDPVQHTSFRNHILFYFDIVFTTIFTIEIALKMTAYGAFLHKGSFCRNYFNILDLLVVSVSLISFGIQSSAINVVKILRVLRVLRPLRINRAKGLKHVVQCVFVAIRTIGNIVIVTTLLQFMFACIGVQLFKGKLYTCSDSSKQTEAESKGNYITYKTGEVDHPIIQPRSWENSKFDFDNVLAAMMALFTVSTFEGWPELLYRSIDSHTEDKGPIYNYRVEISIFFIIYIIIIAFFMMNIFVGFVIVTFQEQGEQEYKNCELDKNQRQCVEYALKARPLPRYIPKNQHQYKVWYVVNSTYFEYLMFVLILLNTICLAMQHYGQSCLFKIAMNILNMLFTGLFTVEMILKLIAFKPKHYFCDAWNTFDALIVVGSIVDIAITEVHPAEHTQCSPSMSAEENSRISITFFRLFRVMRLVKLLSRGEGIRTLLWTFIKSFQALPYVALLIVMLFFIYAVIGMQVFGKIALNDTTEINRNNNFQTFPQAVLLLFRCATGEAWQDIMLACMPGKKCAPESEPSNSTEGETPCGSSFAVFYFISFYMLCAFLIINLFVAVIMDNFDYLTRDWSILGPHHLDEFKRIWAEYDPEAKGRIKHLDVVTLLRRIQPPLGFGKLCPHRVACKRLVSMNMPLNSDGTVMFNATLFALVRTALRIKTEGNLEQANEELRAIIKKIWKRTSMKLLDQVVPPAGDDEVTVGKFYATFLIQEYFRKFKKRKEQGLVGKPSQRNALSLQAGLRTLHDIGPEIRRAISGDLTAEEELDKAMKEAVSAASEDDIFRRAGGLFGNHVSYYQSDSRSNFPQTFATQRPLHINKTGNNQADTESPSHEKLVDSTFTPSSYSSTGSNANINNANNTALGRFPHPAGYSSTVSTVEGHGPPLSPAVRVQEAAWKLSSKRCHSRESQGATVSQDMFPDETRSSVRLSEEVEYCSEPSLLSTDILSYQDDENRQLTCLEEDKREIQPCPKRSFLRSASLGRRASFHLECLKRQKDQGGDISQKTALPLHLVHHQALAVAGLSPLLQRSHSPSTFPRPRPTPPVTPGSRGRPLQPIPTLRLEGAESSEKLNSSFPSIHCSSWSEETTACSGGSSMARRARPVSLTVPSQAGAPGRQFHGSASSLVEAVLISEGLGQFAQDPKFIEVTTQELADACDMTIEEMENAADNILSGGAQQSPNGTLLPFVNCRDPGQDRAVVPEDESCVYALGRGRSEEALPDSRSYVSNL

Vasopressin V1a receptor = Vasopressin V1a receptor (Homo sapiens, UniProt P37288)
Vasopressin V1a receptor, sequence (P37288 whole entry): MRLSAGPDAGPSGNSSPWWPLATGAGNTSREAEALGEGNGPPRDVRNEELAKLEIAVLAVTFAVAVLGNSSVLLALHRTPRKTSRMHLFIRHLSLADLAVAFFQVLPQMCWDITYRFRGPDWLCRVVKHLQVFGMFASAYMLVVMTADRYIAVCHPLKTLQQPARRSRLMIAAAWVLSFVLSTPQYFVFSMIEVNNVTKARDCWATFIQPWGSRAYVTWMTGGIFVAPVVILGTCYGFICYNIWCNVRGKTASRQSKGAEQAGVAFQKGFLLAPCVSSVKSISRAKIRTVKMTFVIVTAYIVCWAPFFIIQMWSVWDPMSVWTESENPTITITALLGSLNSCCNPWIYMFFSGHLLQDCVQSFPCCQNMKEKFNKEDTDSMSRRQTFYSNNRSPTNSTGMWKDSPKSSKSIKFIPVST

[4] = target: Delta-type opioid receptor (Homo sapiens, UniProt P41143)
Delta-type opioid receptor, sequence (P41143 whole entry): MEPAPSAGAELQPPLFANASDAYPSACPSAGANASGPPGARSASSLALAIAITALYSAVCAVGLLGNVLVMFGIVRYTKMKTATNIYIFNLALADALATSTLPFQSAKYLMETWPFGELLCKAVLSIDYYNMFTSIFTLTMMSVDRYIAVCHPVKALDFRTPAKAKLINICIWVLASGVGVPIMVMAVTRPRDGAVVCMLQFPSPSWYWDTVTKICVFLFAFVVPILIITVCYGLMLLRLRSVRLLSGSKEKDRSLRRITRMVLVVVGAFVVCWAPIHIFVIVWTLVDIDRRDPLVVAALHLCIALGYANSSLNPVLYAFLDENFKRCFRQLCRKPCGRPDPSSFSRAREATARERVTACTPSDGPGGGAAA

[5] = target: T3, Alpha-2A adrenergic receptor (Homo sapiens, UniProt P08913); type: functional, cell-based
T3 sequence (P08913 whole entry): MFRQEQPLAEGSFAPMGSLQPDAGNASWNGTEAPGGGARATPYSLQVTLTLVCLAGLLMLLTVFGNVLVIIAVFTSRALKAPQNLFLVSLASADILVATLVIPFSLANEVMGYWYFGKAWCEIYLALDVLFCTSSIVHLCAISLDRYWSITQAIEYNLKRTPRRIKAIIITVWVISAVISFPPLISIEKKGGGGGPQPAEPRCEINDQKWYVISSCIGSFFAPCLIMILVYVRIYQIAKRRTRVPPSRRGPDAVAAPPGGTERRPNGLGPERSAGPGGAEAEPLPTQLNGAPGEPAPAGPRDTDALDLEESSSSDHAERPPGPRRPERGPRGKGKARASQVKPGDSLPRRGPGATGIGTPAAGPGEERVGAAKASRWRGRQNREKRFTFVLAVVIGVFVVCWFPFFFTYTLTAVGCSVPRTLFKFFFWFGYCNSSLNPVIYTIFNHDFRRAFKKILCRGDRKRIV

Progesterone receptor [6] = target: T2, Progesterone receptor; type: functional; remark: listed apart in the source
[7] = target: T4, 5-hydroxytryptamine receptor 1A (Homo sapiens, UniProt P08908); type: functional, cell-based
T4 sequence (P08908 whole entry): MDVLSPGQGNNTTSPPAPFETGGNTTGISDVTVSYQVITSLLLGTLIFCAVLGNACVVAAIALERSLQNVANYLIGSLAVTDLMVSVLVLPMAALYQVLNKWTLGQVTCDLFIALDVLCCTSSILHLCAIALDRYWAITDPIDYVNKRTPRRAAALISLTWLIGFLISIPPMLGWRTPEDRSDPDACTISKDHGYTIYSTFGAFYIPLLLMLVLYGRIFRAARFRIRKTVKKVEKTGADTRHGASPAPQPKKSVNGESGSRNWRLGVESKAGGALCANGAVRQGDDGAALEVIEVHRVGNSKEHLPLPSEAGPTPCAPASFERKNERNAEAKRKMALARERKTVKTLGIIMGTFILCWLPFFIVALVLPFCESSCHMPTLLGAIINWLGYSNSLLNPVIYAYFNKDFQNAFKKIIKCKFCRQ

Measured: AC50
Note: assay procedure not described here.

Histamine H2 receptor, sequence (P25021 whole entry): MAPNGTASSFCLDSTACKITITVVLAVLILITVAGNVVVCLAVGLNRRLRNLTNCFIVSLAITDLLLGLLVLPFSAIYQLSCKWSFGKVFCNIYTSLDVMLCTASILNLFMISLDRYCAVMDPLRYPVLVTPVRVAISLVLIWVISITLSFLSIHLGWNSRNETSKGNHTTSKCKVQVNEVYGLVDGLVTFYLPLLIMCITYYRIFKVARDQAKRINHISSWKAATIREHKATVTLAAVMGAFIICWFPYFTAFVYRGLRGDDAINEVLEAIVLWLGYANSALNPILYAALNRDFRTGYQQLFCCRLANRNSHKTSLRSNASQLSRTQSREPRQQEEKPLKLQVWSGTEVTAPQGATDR

CC(C)N(CCC(C(N)=O)(c1ccccc1)c1ccccn1)C(C)C (configuration not stated) [DISOPYRAMIDE]
27 µM: Progesterone receptor [6]
> 10 µM: Histamine H2 receptor | [3] | [5] | [7]
> 30 µM: all other assays above

CC(N)C12CC3CC(CC(C3)C1)C2 (configuration not stated) [RIMANTADINE]
> 30 µM: [4]
not listed: Vasopressin V1a receptor
> 10 µM: all other assays above

C[C@]12C=CC(=O)N[C@@H]1CC[C@@H]1[C@@H]2CC[C@]2(C)[C@@H](C(=O)Nc3cc(C(F)(F)F)ccc3C(F)(F)F)CC[C@@H]12 [DUTASTERIDE]
> 30 µM: [4]
> 10 µM: all other assays above

CC(C)c1nc(N(C)S(C)(=O)=O)nc(-c2ccc(F)cc2)c1/C=C/[C@@H](O)C[C@@H](O)CC(=O)O [ROSUVASTATIN]
not listed: [3]
> 30 µM: all other assays above

CC(S)C(=O)NCC(=O)O (configuration not stated) [TIOPRONIN]
not listed: Histamine H2 receptor | [3]
> 30 µM: all other assays above

O=C1C(CC[S+]([O-])c2ccccc2)C(=O)N(c2ccccc2)N1c1ccccc1 (configuration not stated) [SULFINPYRAZONE]
> 30 µM: [4] | [5]
> 10 µM: all other assays above

OC[C@H]1O[C@@](CO)(O[C@H]2O[C@H](CO)[C@@H](O)[C@H](O)[C@H]2O)[C@@H](O)[C@@H]1O [SUCROSE]
not listed: [3]
> 30 µM: all other assays above

CO[C@H]1/C=C/O[C@@]2(C)Oc3c(C)c(O)c4c(O)c(c(/C=N/N5CCN(C)CC5)c(O)c4c3C2=O)NC(=O)/C(C)=C\C=C\[C@H](C)[C@H](O)[C@@H](C)[C@@H](O)[C@@H](C)[C@H](OC(C)=O)[C@@H]1C [RIFAMPIN]
17 µM: [4]
12.4 µM: [1]
26.7 µM: Vasopressin V1a receptor
> 10 µM: [7]
not listed: Progesterone receptor [6]
> 30 µM: all other assays above

CC(C)Cc1ccc(C(C)C(=O)O)cc1 (configuration not stated) [IBUPROFEN]
> 30 µM: [1] | Vasopressin V1a receptor | [4]
not listed: Progesterone receptor [2] | Progesterone receptor [6]
> 10 µM: all other assays above

Cc1onc(-c2ccccc2)c1-c1ccc(S(N)(=O)=O)cc1 [VALDECOXIB]
> 10 µM: Histamine H2 receptor | [3] | [5] | [7]
> 30 µM: all other assays above

C[C@H]1c2cccc(O)c2C(=O)C2=C(O)[C@]3(O)C(=O)C(C(N)=O)=C(O)[C@@H](N(C)C)[C@@H]3[C@@H](O)[C@@H]21 [DOXYCYCLINE]
> 30 µM: [1] | [4]
not listed: Progesterone receptor [2] | Progesterone receptor [6]
> 10 µM: all other assays above

CN1C(C(=O)Nc2ccccn2)=C(O)c2ccccc2S1(=O)=O [PIROXICAM]
> 30 µM: Histamine H2 receptor | [4]
> 10 µM: all other assays above

C=CC[C@@H]1/C=C(\C)C[C@H](C)C[C@H](OC)[C@H]2O[C@@](O)(C(=O)C(=O)N3CCCC[C@H]3C(=O)O[C@H](/C(C)=C/[C@@H]3CC[C@@H](O)[C@H](OC)C3)[C@H](C)[C@@H](O)CC1=O)[C@H](C)C[C@@H]2OC [TACROLIMUS ANHYDROUS]
7.49 µM and > 30 µM: [1]
9.44 µM and > 10 µM: Motilin receptor
7.2 µM and > 10 µM: [5]
> 10 µM: Histamine H2 receptor | [3]
> 30 µM: all other assays above

CN(C)CCC[C@@]1(c2ccc(F)cc2)OCc2cc(C#N)ccc21 [ESCITALOPRAM]
not listed: Histamine H2 receptor | [3]
> 30 µM: all other assays above

N[C@@H](CC(=O)N1CCn2c(nnc2C(F)(F)F)C1)Cc1cc(F)c(F)cc1F [SITAGLIPTIN]
> 10 µM: [3]
not listed: Histamine H2 receptor
> 30 µM: all other assays above

COc1cc2nccc(Oc3ccc(NC(=O)C4(C(=O)Nc5ccc(F)cc5)CC4)cc3)c2cc1OC [CABOZANTINIB]
24 µM: Progesterone receptor [6]
not listed: Histamine H2 receptor | [3]
> 30 µM: all other assays above

CCN1CCN(Cc2ccc(Nc3ncc(F)c(-c4cc(F)c5nc(C)n(C(C)C)c5c4)n3)nc2)CC1 [ABEMACICLIB]
not listed: Histamine H2 receptor | [3]
> 30 µM: all other assays above

C[C@@H](Oc1cc(-c2cnn(C3CCNCC3)c2)cnc1N)c1c(Cl)ccc(F)c1Cl [CRIZOTINIB]
1.56 µM: [3]
16 µM: Motilin receptor
> 10 µM: [7]
not listed: Histamine H2 receptor
> 30 µM: all other assays above

Source: ChEMBL document CHEMBL5291721, “A preclinical secondary pharmacology resource illuminates target-adverse drug reaction associations of marketed drugs” (Nat Commun, 2023)
